Results as given in ChEMBL document CHEMBL5696441 (Nat Chem Biol, 2011).

How the values were obtained:
[1] = tested on: Hepatocyte growth factor receptor (Homo sapiens), P08581 [F1200I]; assay: Inhibition of human MET F1200I mutant assessed as residual activity at 1 uM using poly(Ala,Glu,Lys,Tyr)6:2:5:1 as substrate in presence of 33P-ATP by ProQinase assay relative to control
[2] = target: Mitogen-activated protein kinase 14 (Homo sapiens) (UniProt Q16539); assay: Inhibition of human p38alpha assessed as residual activity at 1 uM using ATF2 as substrate in presence of 33P-ATP by ProQinase assay relative to control
Chain of Mitogen-activated protein kinase 14 (Homo sapiens) (Q16539 whole entry): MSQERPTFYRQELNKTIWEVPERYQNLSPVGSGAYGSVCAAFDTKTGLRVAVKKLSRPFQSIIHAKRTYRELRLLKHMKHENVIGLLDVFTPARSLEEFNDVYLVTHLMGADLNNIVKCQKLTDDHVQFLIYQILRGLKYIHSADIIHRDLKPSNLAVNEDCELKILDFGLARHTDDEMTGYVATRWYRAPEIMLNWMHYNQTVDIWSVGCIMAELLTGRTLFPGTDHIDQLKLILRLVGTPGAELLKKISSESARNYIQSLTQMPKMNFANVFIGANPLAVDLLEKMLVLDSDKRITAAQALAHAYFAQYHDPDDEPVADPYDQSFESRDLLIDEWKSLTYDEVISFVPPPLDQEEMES

[3] = tested on: Tyrosine-protein kinase ABL1 (Homo sapiens), P00519 [H396P]; assay: Inhibition of human ABL1 H396P mutant assessed as residual activity at 1 uM using Poly(Ala,Glu,Lys,Tyr)6:2:5:1 as substrate in presence of 33P-ATP by ProQinase assay relative to control
[4] = target: Mitogen-activated protein kinase 1 (Homo sapiens) (UniProt P28482); assay: Inhibition of ERK2 (unknown origin) assessed as remaining activity at 1 uM by Kinome scan method relative to control
Chain of Mitogen-activated protein kinase 1 (Homo sapiens) (P28482 whole entry, canonical isoform): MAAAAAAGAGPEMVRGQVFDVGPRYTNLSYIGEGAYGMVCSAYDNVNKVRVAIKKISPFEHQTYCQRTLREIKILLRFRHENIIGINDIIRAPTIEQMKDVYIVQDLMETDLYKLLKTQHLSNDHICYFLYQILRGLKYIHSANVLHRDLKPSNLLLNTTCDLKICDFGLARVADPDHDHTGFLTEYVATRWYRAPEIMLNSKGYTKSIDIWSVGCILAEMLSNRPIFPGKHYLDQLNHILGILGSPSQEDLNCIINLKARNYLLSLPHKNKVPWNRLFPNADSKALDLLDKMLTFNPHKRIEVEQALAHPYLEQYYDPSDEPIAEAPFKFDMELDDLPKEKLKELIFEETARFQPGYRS

[5] = target: T1, Phosphorylase b kinase gamma catalytic chain, liver/testis isoform (Homo sapiens) (UniProt P15735); assay: Inhibition of human PHKG2 assessed as residual activity at 1 uM using RBER-CHKtide as substrate in presence of 33P-ATP by ProQinase assay relative to control
T1 sequence (whole entry): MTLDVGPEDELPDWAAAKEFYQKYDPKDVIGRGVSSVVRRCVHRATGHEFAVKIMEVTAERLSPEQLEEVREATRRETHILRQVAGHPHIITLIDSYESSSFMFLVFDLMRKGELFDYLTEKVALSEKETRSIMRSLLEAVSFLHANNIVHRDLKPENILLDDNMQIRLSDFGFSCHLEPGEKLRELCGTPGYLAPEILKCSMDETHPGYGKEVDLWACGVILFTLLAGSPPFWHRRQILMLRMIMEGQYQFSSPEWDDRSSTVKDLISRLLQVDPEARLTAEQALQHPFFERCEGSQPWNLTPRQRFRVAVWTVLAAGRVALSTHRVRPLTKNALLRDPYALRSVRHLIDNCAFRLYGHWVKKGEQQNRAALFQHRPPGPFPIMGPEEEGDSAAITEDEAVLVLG

[6] = target: Dual specificity tyrosine-phosphorylation-regulated kinase 1A (Homo sapiens) (UniProt Q13627); assay: Inhibition of human DYRK1A assessed as residual activity at 1 uM using RBER-CHKtide as substrate in presence of 33P-ATP by ProQinase assay relative to control
[7] = target: Rho-associated protein kinase 2 (Homo sapiens) (UniProt O75116); assay: Inhibition of human ROCK2 assessed as residual activity at 1 uM using RB-S6P as substrate in presence of 33P-ATP by ProQinase assay relative to control
Chain of Rho-associated protein kinase 2 (Homo sapiens) (O75116 whole entry, looked up): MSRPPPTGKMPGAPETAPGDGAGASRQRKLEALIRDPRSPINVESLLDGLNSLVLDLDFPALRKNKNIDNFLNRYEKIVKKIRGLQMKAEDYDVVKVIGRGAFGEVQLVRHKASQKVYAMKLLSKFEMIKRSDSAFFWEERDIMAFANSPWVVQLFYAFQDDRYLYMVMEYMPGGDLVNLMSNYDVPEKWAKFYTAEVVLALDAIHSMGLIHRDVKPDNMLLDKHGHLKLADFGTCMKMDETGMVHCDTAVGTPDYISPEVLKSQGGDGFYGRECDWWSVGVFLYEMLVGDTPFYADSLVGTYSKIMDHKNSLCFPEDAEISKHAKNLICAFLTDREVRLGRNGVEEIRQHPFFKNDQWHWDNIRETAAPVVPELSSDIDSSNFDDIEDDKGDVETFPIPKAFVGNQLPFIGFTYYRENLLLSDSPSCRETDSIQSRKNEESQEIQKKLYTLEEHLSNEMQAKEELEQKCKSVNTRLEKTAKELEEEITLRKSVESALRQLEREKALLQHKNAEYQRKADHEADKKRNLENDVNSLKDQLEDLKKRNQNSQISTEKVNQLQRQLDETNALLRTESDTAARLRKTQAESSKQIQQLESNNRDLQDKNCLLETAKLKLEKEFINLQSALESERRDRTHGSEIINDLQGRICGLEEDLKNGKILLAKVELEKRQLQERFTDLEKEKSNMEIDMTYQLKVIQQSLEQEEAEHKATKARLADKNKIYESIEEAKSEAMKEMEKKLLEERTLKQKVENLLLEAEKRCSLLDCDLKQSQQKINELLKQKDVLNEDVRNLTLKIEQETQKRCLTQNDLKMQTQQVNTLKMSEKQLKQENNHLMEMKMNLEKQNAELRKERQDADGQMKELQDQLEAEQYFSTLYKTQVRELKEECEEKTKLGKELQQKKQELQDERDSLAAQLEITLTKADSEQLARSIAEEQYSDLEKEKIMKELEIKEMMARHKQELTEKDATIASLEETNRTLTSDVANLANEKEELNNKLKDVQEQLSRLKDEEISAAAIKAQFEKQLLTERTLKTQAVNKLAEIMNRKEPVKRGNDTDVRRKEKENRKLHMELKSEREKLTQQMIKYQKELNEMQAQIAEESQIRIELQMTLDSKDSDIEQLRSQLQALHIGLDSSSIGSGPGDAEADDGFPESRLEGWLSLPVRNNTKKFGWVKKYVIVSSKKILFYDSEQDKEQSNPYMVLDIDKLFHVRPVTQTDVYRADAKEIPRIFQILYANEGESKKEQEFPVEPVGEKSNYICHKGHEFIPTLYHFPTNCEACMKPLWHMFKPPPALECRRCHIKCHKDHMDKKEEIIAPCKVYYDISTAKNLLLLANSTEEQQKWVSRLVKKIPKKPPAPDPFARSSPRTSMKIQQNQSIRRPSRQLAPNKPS

[8] = target: T2, cGMP-dependent protein kinase 2 (Homo sapiens) (UniProt Q13237); assay: Inhibition of human PRKG2 assessed as residual activity at 1 uM using RBER-GSK3(14-27) as substrate in presence of 33P-ATP by ProQinase assay relative to control
T2 sequence (whole entry): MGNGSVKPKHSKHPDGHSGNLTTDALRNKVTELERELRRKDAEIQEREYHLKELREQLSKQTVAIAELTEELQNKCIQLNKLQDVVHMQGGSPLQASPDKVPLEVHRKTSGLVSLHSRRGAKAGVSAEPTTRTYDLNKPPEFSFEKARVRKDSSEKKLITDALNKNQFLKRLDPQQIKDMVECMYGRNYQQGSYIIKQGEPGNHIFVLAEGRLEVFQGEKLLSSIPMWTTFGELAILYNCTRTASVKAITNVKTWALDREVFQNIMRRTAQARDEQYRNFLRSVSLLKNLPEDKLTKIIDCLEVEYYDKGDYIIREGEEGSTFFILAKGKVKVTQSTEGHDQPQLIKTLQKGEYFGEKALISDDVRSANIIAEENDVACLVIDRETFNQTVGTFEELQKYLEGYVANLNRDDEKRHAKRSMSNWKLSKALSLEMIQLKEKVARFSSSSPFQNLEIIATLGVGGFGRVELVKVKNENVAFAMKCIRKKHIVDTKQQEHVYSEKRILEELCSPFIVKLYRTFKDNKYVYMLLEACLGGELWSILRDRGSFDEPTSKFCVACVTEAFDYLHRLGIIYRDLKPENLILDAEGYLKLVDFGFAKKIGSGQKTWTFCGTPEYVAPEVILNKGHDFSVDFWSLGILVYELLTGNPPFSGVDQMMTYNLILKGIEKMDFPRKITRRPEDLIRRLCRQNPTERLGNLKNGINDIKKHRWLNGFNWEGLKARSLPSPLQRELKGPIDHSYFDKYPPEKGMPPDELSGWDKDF

[9] = target: Dual specificity tyrosine-phosphorylation-regulated kinase 4 (Homo sapiens) (UniProt Q9NR20); assay: Inhibition of human DYRK4 assessed as residual activity at 1 uM using RBER-CHKtide as substrate in presence of 33P-ATP by ProQinase assay relative to control
Chain of Dual specificity tyrosine-phosphorylation-regulated kinase 4 (Homo sapiens) (Q9NR20 whole entry): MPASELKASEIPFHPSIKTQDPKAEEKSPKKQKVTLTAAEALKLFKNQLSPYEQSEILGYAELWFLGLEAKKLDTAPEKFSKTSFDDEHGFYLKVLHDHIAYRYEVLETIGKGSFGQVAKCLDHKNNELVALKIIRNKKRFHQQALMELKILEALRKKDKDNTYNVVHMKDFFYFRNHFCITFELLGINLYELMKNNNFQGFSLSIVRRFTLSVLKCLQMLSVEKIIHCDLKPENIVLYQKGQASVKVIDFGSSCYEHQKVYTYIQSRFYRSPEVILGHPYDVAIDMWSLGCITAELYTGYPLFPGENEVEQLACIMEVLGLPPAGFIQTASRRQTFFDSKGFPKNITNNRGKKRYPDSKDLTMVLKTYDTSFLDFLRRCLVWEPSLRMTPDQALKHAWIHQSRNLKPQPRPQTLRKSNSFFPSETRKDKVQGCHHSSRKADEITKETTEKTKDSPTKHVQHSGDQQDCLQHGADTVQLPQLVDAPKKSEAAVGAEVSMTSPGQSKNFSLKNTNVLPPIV

[10] = tested on: Hepatocyte growth factor receptor (Homo sapiens), P08581 [Y1235D]; assay: Inhibition of human MET Y1235D mutant assessed as residual activity at 1 uM using PolyEY as substrate in presence of 33P-ATP by ProQinase assay relative to control
[11] = target: Tyrosine-protein kinase Fgr (Homo sapiens) (UniProt P09769); assay: Inhibition of human FGR assessed as residual activity at 1 uM using polyEY as substrate in presence of 33P-ATP by ProQinase assay relative to control
Chain of Tyrosine-protein kinase Fgr (Homo sapiens) (P09769 2-529 limits assumed): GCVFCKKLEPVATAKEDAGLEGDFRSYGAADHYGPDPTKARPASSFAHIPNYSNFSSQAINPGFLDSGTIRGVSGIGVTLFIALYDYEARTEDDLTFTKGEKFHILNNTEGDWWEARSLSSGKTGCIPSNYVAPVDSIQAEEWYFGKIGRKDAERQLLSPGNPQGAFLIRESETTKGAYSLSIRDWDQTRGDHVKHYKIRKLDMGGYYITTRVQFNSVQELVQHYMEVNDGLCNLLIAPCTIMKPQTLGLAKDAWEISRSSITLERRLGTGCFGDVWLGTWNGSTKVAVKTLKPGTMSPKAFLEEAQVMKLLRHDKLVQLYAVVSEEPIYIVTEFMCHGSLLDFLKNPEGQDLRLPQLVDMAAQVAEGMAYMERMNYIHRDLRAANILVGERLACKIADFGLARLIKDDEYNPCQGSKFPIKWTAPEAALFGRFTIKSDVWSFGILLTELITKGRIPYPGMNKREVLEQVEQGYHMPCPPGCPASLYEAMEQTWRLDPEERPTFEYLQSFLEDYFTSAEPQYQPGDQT

[12] = target: Tyrosine-protein kinase Yes (Homo sapiens) (UniProt P07947); assay: Inhibition of YES (unknown origin) assessed as remaining activity at 1 uM by Kinome scan method relative to control
[13] = target: Glycogen synthase kinase-3 alpha (Homo sapiens) (UniProt P49840); assay: Inhibition of GSK3alpha (unknown origin) assessed as remaining activity at 1 uM by Kinome scan method relative to control
Chain of Glycogen synthase kinase-3 alpha (Homo sapiens) (P49840 2-483 limits assumed): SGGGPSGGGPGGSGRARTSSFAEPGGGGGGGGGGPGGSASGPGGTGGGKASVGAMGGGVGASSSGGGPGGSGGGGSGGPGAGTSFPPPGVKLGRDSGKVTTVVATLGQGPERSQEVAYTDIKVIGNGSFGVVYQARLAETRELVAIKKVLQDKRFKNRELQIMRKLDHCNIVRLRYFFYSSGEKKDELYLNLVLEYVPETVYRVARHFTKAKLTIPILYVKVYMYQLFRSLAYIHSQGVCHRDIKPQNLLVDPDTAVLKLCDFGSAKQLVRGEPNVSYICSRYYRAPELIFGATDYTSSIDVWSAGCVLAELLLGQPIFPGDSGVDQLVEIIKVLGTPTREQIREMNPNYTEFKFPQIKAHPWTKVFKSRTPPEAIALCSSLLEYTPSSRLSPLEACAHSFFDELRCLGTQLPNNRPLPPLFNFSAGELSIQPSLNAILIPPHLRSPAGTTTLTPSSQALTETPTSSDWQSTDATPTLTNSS

[14] = target: Serine/threonine-protein kinase SBK1 (Homo sapiens) (UniProt Q52WX2); assay: Inhibition of SBK1 (unknown origin) assessed as remaining activity at 1 uM by Kinome scan method relative to control
Chain of Serine/threonine-protein kinase SBK1 (Homo sapiens) (Q52WX2 whole entry): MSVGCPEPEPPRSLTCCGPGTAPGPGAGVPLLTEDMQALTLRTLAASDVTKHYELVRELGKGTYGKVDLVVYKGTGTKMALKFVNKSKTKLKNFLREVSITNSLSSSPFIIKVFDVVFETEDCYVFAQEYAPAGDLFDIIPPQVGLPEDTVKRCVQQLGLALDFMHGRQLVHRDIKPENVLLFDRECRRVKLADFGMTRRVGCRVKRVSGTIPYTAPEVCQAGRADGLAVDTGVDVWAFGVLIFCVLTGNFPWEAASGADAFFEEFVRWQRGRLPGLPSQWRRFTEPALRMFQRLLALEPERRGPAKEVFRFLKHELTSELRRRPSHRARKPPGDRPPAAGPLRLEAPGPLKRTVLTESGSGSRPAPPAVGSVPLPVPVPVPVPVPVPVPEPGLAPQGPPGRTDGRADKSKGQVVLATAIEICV

[15] = target: Ribosomal protein S6 kinase alpha-4 (Homo sapiens) (UniProt O75676); assay: Inhibition of human RPS6KA4 assessed as residual activity at 1 uM using RBER-CHKtide as substrate in presence of 33P-ATP by ProQinase assay relative to control
Chain of Ribosomal protein S6 kinase alpha-4 (Homo sapiens) (O75676 whole entry, looked up): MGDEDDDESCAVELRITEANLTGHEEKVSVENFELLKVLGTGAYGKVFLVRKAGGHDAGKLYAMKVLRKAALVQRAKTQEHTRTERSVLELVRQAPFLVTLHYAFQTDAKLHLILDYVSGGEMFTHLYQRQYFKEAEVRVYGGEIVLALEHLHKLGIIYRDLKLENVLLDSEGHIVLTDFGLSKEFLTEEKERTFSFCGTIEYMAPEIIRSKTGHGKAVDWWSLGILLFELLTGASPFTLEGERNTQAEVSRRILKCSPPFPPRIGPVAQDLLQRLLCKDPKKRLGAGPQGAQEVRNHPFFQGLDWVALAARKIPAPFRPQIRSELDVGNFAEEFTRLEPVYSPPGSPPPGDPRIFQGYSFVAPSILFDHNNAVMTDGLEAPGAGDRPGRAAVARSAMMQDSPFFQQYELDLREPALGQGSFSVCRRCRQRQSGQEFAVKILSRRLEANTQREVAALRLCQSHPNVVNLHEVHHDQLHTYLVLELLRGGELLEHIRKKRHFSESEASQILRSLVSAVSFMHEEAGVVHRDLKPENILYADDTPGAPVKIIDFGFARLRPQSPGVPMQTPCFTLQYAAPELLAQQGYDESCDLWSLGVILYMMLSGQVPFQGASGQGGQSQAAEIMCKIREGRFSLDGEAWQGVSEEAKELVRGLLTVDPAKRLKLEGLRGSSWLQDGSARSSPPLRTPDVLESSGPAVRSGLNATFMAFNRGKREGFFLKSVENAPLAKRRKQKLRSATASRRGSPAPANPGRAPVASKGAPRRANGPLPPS

[16] = tested on: Tyrosine-protein kinase ABL1 (Homo sapiens), P00519 [Q252H]; assay: Inhibition of ABL1 Q252H mutant (unknown origin) assessed as remaining activity at 1 uM by Kinome scan method relative to control
[17] = target: Macrophage colony-stimulating factor 1 receptor (Homo sapiens) (UniProt P07333); assay: Inhibition of CSF1R (unknown origin) assessed as remaining activity at 1 uM by Kinome scan method relative to control

O=C1c2ccc(Nc3ccc(F)cc3F)cc2CCc2ccc(OC[C@H](O)CO)cc21 [Skepinone-L]
Activity [1]: 96% | Activity [2]: 0% | Activity [3]: 99% | Activity [4]: 100% | Activity [5]: 73% | Activity [6]: 96% | Activity [7]: 90% | Activity [8]: 94% | Activity [9]: 93% | Activity [10]: 114% | Activity [11]: 100% | Activity [12]: 97% | Activity [13]: 100% | Activity [14]: 100% | Activity [15]: 107% | Activity [16]: 93% | Activity [17]: 92%
